Measured values reported in patent publication US11497729B2, “Methods and materials for treating cancer” (Mayo Foundation for Medical Education and Research, priority 2016, dated 2022).
Entries after “also recorded” stand apart in the source; their conditions may differ.

Tests used:
[1] = system: HER2+ breast cancer cells; test: Cell survival by MTS assay, Herceptin with or without P005091; type: cell-based; conditions: FIG. 4A
Procedure: (§1) P005091 increased the efficacy of the HER2 inhibitor, trastuzumab, in HER2^+ breast cancer cells, xenografts, and PDX models. HER2^+ breast cancer cells were treated with indicated concentrations of Herceptin with or without 10 μM P005091 for 72 hours. Cell survival was determined by MTS assays. Data was shown as mean values for three independent experiments, and error bars represent standard error of the mean (SEM) (n=3) (FIG. 4A). Tumor xenografts were initiated by subcutaneous inoculation of Bt474 parental and Bt474 Herceptin resistance cells in the lower back of SCID mice. Herceptin (15 mg/kg) and P005091 (10 mg/kg) were administered intraperitoneally once a week for the entire duration of the study. […] A HER2^+ patient derived xenograft model was tested by inoculation of tissues in the lower back of SCID mice (FIG. 4C). Drug treatment was same as described above. Data represent the mean±SD of 6 mice in each group.

[2] = system: HER2+ patient derived xenograft; test: HER2+ patient derived xenograft model in SCID mice; type: in vivo; conditions: Herceptin 15 mg/kg and P005091 10 mg/kg intraperitoneally once a week, FIG. 4C
Procedure: as §1

HER1 (EGFR) = test: Western blot of ZR-75-1 cell lysates, HER1; type: cell-based; conditions: ZR-75-1 cells, 10 μM P005091 for 12 hours; FIG. 5
Procedure: (§2) Breast cancer cells ZR-75-1 were treated with either 1% DMSO or 10 μM P005091 for 12 hours. Cell lysates were subjected to western blot with indicated antibodies (FIG. 5).

HER2 = test: Western blot of ZR-75-1 cell lysates, HER2; type: cell-based; conditions: ZR-75-1 cells, 10 μM P005091 for 12 hours; FIG. 5
Procedure: as §2

HER3 = test: Western blot of ZR-75-1 cell lysates, HER3; type: cell-based; conditions: ZR-75-1 cells, 10 μM P005091 for 12 hours; FIG. 5
Procedure: as §2

HER4 = test: Western blot of ZR-75-1 cell lysates, HER4; type: cell-based; conditions: ZR-75-1 cells, 10 μM P005091 for 12 hours; FIG. 5
Procedure: as §2

CC(=O)c1cc([N+](=O)[O-])c(Sc2cccc(Cl)c2Cl)s1 [P005091, 1-[5-(2,3-dichlorophenyl)sulfanyl-4-nitrothiophen-2-yl]ethanone]
sensitization effect in HER2 resistant breast cancer cell lines ([1]; HER2 resistant breast cancer cell lines): sensitization effect occurred
sensitization of HER2+ breast cancer cells to trastuzumab treatment (cell survival) ([1]; four different HER2+ breast cancer cells, 10 μM P005091 with Herceptin for 72 hours): sensitizes; also recorded: dramatically sensitized
sensitivity of PDX model to treatment [2]: dramatically sensitized
HER1 (EGFR) protein level by Western blot (HER1 (EGFR)): down regulated
HER2 protein level by Western blot (HER2): down regulated
HER3 protein level by Western blot (HER3): down regulated
HER4 protein level by Western blot (HER4): down regulated
